What follows are molecules tested against PolQ ATPase enzyme (1-894) (Homo sapiens (Human), UniProt O75417) (assay: Polθ ATPase enzymatic assay (0.5 nM enzyme concentration), ADP-Glo). Conditions: average IC50; 0.5 nM PolQ ATPase enzyme (1-894).
Assay type: biochemical
Protocol: PolQ ATPase enzyme (1-894) at 0.5 nM is incubated with a 10-point concentration response of inhibitors for 15 min at rt in the following buffer: 50 mM Tris Cl pH 7.5, 10% glycerol, 5 mM DTT, 10 mM MgCl2, 0.1 mg/ml BSA. Following pre-incubation with inhibitors, DNA (Fork C) at 20 nM and ATP at 100 μM are added to start the reaction. Enzymatic reaction proceeds at rt for 180 min ATP consumption is measured using the ADP-Glo assay from Promega. Luminescence is read on the Envision and IC50 are determined using the variable slope 4-parameters equation.
Oligos are annealed by heating at 9500 for 5 min in the following buffer (10 mM Tris-HCl pH7.5, 50 mM NaCl, 1 mM EDTA) and cooled to rt. […]

Chain of PolQ ATPase enzyme (1-894) (O75417 1-894): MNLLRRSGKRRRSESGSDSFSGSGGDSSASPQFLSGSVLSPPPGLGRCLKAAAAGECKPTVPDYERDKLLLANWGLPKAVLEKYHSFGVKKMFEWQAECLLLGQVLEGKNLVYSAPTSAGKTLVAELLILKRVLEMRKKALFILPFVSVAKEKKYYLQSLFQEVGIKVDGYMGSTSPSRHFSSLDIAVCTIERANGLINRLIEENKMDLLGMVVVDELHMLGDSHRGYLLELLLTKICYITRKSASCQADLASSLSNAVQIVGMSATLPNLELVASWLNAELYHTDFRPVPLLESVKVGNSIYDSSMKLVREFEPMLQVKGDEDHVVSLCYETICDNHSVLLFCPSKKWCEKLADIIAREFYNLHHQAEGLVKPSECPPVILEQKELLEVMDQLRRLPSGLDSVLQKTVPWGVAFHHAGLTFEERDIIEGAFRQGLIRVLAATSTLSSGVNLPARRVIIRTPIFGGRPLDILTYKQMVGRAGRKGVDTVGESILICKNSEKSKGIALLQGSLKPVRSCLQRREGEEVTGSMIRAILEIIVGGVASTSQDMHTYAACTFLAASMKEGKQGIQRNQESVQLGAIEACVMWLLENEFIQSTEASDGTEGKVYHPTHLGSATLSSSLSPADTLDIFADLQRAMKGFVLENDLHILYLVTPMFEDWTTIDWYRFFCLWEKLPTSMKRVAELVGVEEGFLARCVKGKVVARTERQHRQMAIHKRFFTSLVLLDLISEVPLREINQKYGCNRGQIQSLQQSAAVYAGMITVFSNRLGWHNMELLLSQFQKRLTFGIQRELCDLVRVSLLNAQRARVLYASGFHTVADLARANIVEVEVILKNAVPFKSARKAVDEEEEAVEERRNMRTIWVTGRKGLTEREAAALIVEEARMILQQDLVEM

| Compound | IC50 |
| --- | --- |
| COc1cnc(C(F)F)cc1-c1cc(N2CCOCC2)ccc1C(=O)Nc1nnc(C#CC2CC2)s1 [Compound 239] | 18 nM |
| CNC(=O)Cc1ccc(C(=O)Nc2ncc(C#CC3CC3)s2)c(-c2cc(C(F)F)ncc2OC)c1 [Compound 204] | 0.71 nM |
| COc1cnc(C(F)F)cc1-c1cc(C#Cc2cn[nH]c2)ncc1C(=O)Nc1nnc(C#CC2CC2)s1 [Compound 196] | < 0.25 nM |
| CNC(=O)Cn1cc(-c2cc(C(F)(F)F)ccc2OC)c(C(=O)Nc2nnc(C3CC3c3ccc(C#N)cc3)s2)cc1=O (stereo not shown) [Compound 92] | 0.25 nM |
| COc1cnc(Cl)nc1-c1cnccc1C(=O)Nc1nnc(C#CC2CC2)s1 [Compound 68] | 1.6 nM |
| COc1cnc(C(F)F)cc1-c1cn(C)c(=O)cc1C(=O)Nc1nnc(C2C[C@H]2c2ccc(C#N)cc2)s1 (stereo partly shown) [Compound 322] | 1.9 nM |
| COc1cnc(C(F)F)cc1-c1cn2ncnc2cc1C(=O)Nc1nnc(C#CC2CC23CC3)s1 (stereo not shown) [Compound 48] | 2.5 nM |
| COc1ccc(C(F)(F)F)cc1-c1cc(-c2cnn(C)c2)ncc1C(=O)Nc1nnc(C#CC2CC2)s1 [Compound 296] | 1.6 nM |
| COc1cnc(C(F)F)cc1-c1cc(C#CC2(C)CCCO2)ncc1C(=O)Nc1nnc(C#CC2CC2)s1 (stereo not shown) [Compound 151] | < 0.25 nM |
| COc1cnc(C(F)F)cc1-c1cc(C(=O)N2CCOCC2)ccc1C(=O)Nc1nnc(C#CC2CC2)s1 [Compound 254] | 1.7 nM |
| COc1ccc(C(F)(F)F)cc1-c1cn2ncnc2cc1C(=O)Nc1nnc(C#Cc2cc(C)[nH]n2)s1 [Compound 86] | 1.6 nM |
| COc1cnc(C)cc1-c1cnccc1C(=O)Nc1nnc(C#Cc2cc(C)[nH]n2)s1 [Compound 85] | 1.1 nM |
| COc1cnc(C(F)F)cc1-c1cc(-c2ccn(C)n2)ncc1C(=O)Nc1nnc(C#Cc2cc(C)[nH]n2)s1 [Compound 161] | < 0.25 nM |
| COc1cnc(C(F)F)cc1-c1cc(-c2nnc(C)s2)ccc1C(=O)Nc1nnc(C#CC2CC2)s1 [Compound 138] | < 0.25 nM |
| Cn1cc(-c2cc(Cl)ncc2OC(F)F)c(C(=O)Nc2nnc(C#CC3CC3)s2)cc1=O [Compound 74] | 0.73 nM |
| COc1cnc(C(F)F)cc1-c1cc(OCC2CC2)ncc1C(=O)Nc1nnc(C#CC2CC2)s1 [Compound 180] | 4.6 nM |
| Cc1cc(C#Cc2nnc(NC(=O)c3ccncc3-c3cc(Cl)ncc3OC(F)F)s2)n[nH]1 [Compound 106] | < 0.25 nM |
| COc1ncc(C(F)(F)F)cc1-c1cnccc1C(=O)Nc1nnc(C#Cc2cc(C)[nH]n2)s1 [Compound 88] | 2.4 nM |

| Compound | IC50 |
| --- | --- |
| COc1ccc(C(F)(F)F)cc1-c1cc(Cl)ncc1C(=O)Nc1nnc(C#CC2CC2)s1 [Compound 41] | < 0.25 nM |
| COc1cnc(C(F)F)cc1-c1cc(N2CCC(C)(O)CC2)ncc1C(=O)Nc1nnc(C#CC2CC2)s1 [Compound 121] | 2 nM |
| COc1cnc(C(F)F)cc1-c1cc(Nc2ccn(C)n2)ccc1C(=O)Nc1nnc(C#CC2CC2)s1 [Compound 166] | 0.52 nM |
| COc1cnc(C(F)F)cc1-c1cc(N2CCOCC2=O)ccc1C(=O)Nc1ncc(C#CC2CC2)s1 [Compound 213] | < 0.25 nM |
| COc1ccc(C(F)F)cc1-c1cnccc1C(=O)Nc1nnc(C#CC2CC2)s1 [Compound 56] | < 0.25 nM |
| COc1cnc(C(F)F)cc1-c1cc(-n2ccccc2=O)ncc1C(=O)Nc1nnc(C#CC2CC2)s1 [Compound 122, N-(5-(cyclopropylethynyl)-1,3,4-thiadiazol-2-yl)-2″-(difluoromethyl)-5″-methoxy-2-oxo-2H-[1,2′:4′,4″-terpyridine]-5′-carboxamide] | < 0.25 nM |
| COc1cnc(C(F)F)cc1-c1cc(C#CC(C)(C)O)ncc1C(=O)Nc1nnc(C#CC2CC2)s1 [Compound 253] | < 0.25 nM |
| COc1cnc(C(F)F)cc1-c1cc(N2CCOC3(CC3)C2=O)ncc1C(=O)Nc1nnc(C#CC2CC2)s1 [Compound 158] | < 0.25 nM |
| COc1cnc(Cl)cc1-c1cc(C2(C(=O)N(C)C)CC2)ccc1C(=O)Nc1nnc(C#CC2CC2)s1 [Compound 234] | 34 nM |
| C#C[C@@H]1C[C@H]1c1nnc(NC(=O)c2ccc(N3CCOCC3=O)cc2-c2cc(C(F)F)ncc2OC)s1 [Compound 177] | 0.39 nM |
| COc1cnc(C(F)F)cc1-c1cc(N(C)C(=O)C2(C)CC2)ccc1C(=O)Nc1nnc(C#CC2CC2)s1 [Compound 221] | 0.98 nM |
| Cc1nnc(Cn2cc(-c3cc(C(F)F)ccc3Cl)c(C(=O)Nc3ncc(C#CC4CC4)s3)cc2=O)o1 [Compound 114, 5-(2-chloro-5-(difluoromethyl)phenyl)-N-(5-(cyclopropylethynyl)thiazol-2-yl)-1-((5-methyl-1,3,4-oxadiazol-2-yl)methyl)-2-oxo-1,2-dihydropyridine-4-carboxamide] | 0.26 nM |
| COc1cnc(C(F)F)cc1-c1cc(-n2cccn2)ncc1C(=O)Nc1nnc(C#CC2CC2)s1 [Compound 261] | 0.62 nM |
| COc1cnc(C(F)F)cc1-c1cc(-c2ccn(C)n2)cnc1C(=O)Nc1nnc(C#CC2CC2)s1 [Compound 156] | 1.1 nM |
| COc1ccc(C(F)(F)F)cc1-c1cc(N2CCN(C)C2=O)ncc1C(=O)Nc1nnc(C#CC2CC2)s1 [Compound 281] | 20 nM |
| CN(C)C(=O)Cn1cc(-c2cc(C(F)(F)F)ccc2Cl)c(C(=O)Nc2nnc(C#CC3CC3)s2)cc1=O [Compound 34, 5-(2-chloro-5-(trifluoromethyl)phenyl)-N-(5-(cyclopropylethynyl)-1,3,4-thiadiazol-2-yl)-1-(2-(dimethylamino)-2-oxoethyl)-2-oxo-1,2-dihydropyridine-4-carboxamide] | 0.29 nM |
| COc1cnc(C(F)F)cc1-c1cc(N2CCOCC2=O)ncc1C(=O)Nc1nnc(C#CC2CC2)s1 [Compound 110, N-(5-(cyclopropylethynyl)-1,3,4-thiadiazol-2-yl)-2′-(difluoromethyl)-5′-methoxy-6-(3-oxomorpholino)-[4,4′-bipyridine]-3-carboxamide] | < 0.25 nM |

Results, then the molecule that gave them:

| IC50 | Compound |
| --- | --- |
| 0.39 nM | COc1cnc(C(F)F)cc1-c1cc(N2CC3(CCC2=O)CC3)ncc1C(=O)Nc1nnc(C#CC2CC2)s1 [Compound 426] |
| 0.25 nM | COc1cnc(C(F)F)cc1-c1cc(N2CCC3(CCC3)CC2=O)ncc1C(=O)Nc1nnc(C#CC2CC2)s1 [Compound 395] |
| < 0.25 nM | COc1cnc(C(F)F)cc1-c1cc(-c2cncn2C)ncc1C(=O)Nc1nnc(C#CC2CC2)s1 [Compound 405] |
| < 0.25 nM | COc1cnc(C(F)F)cc1-c1cc(-n2cc(F)c(C)cc2=O)ncc1C(=O)Nc1nnc(C#CC2CC2)s1 [Compound 414] |
| < 0.25 nM | COc1cnc(C(F)F)cc1-c1cc(N2CCN(C(=O)OC(C)C)CC2=O)ncc1C(=O)Nc1nnc(C#CC2CC2)s1 [Compound 382] |
| 0.46 nM | COc1cnc(C(F)F)cc1-c1cc(N2C(=O)COCC2C)ncc1C(=O)Nc1nnc(C#CC2CC2)s1 (stereo not shown) [Compound 400] |
| > 100 nM | COc1cnc(C(F)F)cc1-c1cc(-c2nnc(C)o2)ccc1C(=O)Nc1nc(C#CC2CC2)cs1 [Compound 374] |
| < 0.25 nM | COc1cnc(C(F)F)cc1-c1cc(C2C[C@H]2C(=O)N(C)C)ccc1C(=O)Nc1nnc(C#CC2CC2)s1 (stereo partly shown) [Compound 363] |
| 33 nM | COc1ccc(C(F)(F)F)cc1-c1cn(C)c(=O)cc1C(=O)Nc1nnc(C#CC2CCCOC2)s1 (stereo not shown) [Compound 336] |
| 2.1 nM | COc1cnc(C(F)F)cc1-c1cc(-c2cnn(C3CCNCC3)c2)ncc1C(=O)Nc1nnc(C#CC2CC2)s1 [Compound 398] |
| < 0.25 nM | COc1cnc(C(F)F)cc1-c1cc(-c2nc(C)co2)ncc1C(=O)Nc1nnc(C#CC2CC2)s1 [Compound 430] |
| 0.31 nM | COc1cnc(C(F)F)cc1-c1cc(-c2cnc(C)o2)ncc1C(=O)Nc1nnc(C#CC2CC2)s1 [Compound 410] |
| < 0.25 nM | COc1cnc(C(F)F)cc1-c1cc(-n2cccc(OC)c2=O)ncc1C(=O)Nc1nnc(C#CC2CC2)s1 [Compound 438] |
| 9.2 nM | COc1ccc(C(F)(F)F)cc1-c1cn(C)c(=O)cc1C(=O)Nc1nnc(C#CC2CCOCC2)s1 [Compound 337] |
| < 0.25 nM | COc1cnc(C(F)F)cc1-c1cc(-n2cc(F)ccc2=O)ncc1C(=O)Nc1nnc(C#CC2CC2)s1 [Compound 413] |
| 0.27 nM | COCCn1ccc(-c2cc(-c3cc(C(F)F)ncc3OC)c(C(=O)Nc3nnc(C#CC4CC4)s3)cn2)n1 [Compound 427] |
| 10 nM | C#CC1CC1c1nnc(NC(=O)c2ccc(N3CCOCC3=O)cc2-c2cc(C(F)F)ncc2OC)s1 (stereo not shown) [Compound 396] |
| 7.1 nM | COc1cnc(C(F)F)cc1-c1cc(N2C(=O)[C@@H]3CC[C@H]2C3)ncc1C(=O)Nc1nnc(C#CC2CC2)s1 [Compound 368] |
| < 0.25 nM | Cc1nnc(-n2cc(-c3cc(C(F)(F)F)ccc3Cl)c(C(=O)Nc3nnc(C#CC4CC4)s3)cc2=O)o1 [Compound 429] |
| 0.72 nM | COc1cnc(C(F)F)cc1-c1cc(-c2cnn(CC#N)c2)ncc1C(=O)Nc1nnc(C#CC2CC2)s1 [Compound 419] |
| 1.5 nM | COc1cnc(C(F)F)cc1-c1cc(-c2cnn(C3CCN(C)CC3)c2)ncc1C(=O)Nc1nnc(C#CC2CC2)s1 [Compound 399] |
| 0.39 nM | C#CC1CC1c1nnc(NC(=O)c2ccc(N3CCOCC3=O)cc2-c2cc(C(F)F)ncc2OC)s1 (stereo not shown) [Compound 397] |
| 7.2 nM | COc1cnc(C(F)F)cc1-c1cc(N2CC3(CCOCC3)CC2=O)ncc1C(=O)Nc1nnc(C#CC2CC2)s1 [Compound 360] |
| < 0.25 nM | COc1cnc(C(F)F)cc1-c1cc(-n2ccc(Cl)cc2=O)ncc1C(=O)Nc1nnc(C#CC2CC2)s1 [Compound 459] |
| 18 nM | COc1cnc(C(F)F)cc1-c1cc(N2CCOC[C@H]2C)ncc1C(=O)Nc1nnc(C#CC2CC2)s1 [Compound 379] |
| 6.2 nM | CCc1nn(C)cc1-c1cc(-c2ccn(C)n2)ncc1C(=O)Nc1nnc(C#CC2CC2)s1 [Compound 433] |

— patent US20250026748A1, “N-(5-SUBSTITUTED-[(1,3,4-THIADIAZOLYL) OR (THIAZOLYL)])(SUBSTITUTED)CARBOXAMIDE COMPOUNDS AND USE THEREOF FOR INHIBITING HUMAN POLYMERASE THETA” (Repare Therapeutics Inc., priority 2021, published 2025)
